Experimental findings from US11332468B2, “Azaindole derivatives as Rho-kinase inhibitors” (CHIESI FARMACEUTICI S.p.A., priority 2017, dated 2022) are described below.

Experiment [1] addresses Rho kinase 1 (ROCK1) (Homo sapiens, UniProt Q13464). Description: In vitro Rho kinase inhibitory activity assay (ADP-Glo), ROCK1. Conditions: Ki by Cheng-Prusoff from IC50; 10 μM ATP; range of activity. Type of experiment: biochemical. The protocol:
(§1) The effectiveness of compounds of the invention to inhibit Rho kinase activity can be determined in a […] assay containing 40 mM Tris pH7.5, 20 mM MgC2 0.1 mg/ml BSA, 50 μM DTT and 2.5 μM peptide substrate (Myelin Basic Protein) using an ADP-Glo kit (Promega). Compounds were dissolved in DMSO such that the final concentration of DMSO was 1% in the assay. All reactions/incubations are performed at 25° C. Compound (2 ul) and either Rho kinase 1 or 2 (4 μl) were mixed and incubated for 30 mins. Reactions were initiated by addition of ATP (4 μl) such that the final concentration of ATP in the assay was 10 μM. After a 1 hour incubation 10 μl of ADP-Glo Reagent was added and after a further 45 minute incubation 20 ul of Kinase Detection Buffer was added and the mixture incubated for a further 30 minutes. The luminescent signal was measured on a luminometer. […] Compounds were tested in dose-response format and the inhibition of kinase activity was calculated at each concentration of compound. To determine the IC50 (concentration of compound required to inhibit 50% of the enzyme activity) data were fit to a plot of % inhibition vs Log10 compound concentration using a sigmoidal fit with a variable slope and fixing the maximum to 100% and the minimum to 0%. To determine the Ki values the Cheng-Prusoff equation was utilized (Ki=IC50/(1+[S]/Km)

In experiment [2] the target is Rho kinase 2 (ROCK2) (Homo sapiens, UniProt O75116). Description: In vitro Rho kinase inhibitory activity assay (ADP-Glo), ROCK2. Type of experiment: biochemical. Conditions: Ki by Cheng-Prusoff from IC50; 10 μM ATP; range of activity. The protocol:
as §1

pKi: −log10 of the molar value.

Sequence of Rho kinase 2 (ROCK2) (O75116 whole entry): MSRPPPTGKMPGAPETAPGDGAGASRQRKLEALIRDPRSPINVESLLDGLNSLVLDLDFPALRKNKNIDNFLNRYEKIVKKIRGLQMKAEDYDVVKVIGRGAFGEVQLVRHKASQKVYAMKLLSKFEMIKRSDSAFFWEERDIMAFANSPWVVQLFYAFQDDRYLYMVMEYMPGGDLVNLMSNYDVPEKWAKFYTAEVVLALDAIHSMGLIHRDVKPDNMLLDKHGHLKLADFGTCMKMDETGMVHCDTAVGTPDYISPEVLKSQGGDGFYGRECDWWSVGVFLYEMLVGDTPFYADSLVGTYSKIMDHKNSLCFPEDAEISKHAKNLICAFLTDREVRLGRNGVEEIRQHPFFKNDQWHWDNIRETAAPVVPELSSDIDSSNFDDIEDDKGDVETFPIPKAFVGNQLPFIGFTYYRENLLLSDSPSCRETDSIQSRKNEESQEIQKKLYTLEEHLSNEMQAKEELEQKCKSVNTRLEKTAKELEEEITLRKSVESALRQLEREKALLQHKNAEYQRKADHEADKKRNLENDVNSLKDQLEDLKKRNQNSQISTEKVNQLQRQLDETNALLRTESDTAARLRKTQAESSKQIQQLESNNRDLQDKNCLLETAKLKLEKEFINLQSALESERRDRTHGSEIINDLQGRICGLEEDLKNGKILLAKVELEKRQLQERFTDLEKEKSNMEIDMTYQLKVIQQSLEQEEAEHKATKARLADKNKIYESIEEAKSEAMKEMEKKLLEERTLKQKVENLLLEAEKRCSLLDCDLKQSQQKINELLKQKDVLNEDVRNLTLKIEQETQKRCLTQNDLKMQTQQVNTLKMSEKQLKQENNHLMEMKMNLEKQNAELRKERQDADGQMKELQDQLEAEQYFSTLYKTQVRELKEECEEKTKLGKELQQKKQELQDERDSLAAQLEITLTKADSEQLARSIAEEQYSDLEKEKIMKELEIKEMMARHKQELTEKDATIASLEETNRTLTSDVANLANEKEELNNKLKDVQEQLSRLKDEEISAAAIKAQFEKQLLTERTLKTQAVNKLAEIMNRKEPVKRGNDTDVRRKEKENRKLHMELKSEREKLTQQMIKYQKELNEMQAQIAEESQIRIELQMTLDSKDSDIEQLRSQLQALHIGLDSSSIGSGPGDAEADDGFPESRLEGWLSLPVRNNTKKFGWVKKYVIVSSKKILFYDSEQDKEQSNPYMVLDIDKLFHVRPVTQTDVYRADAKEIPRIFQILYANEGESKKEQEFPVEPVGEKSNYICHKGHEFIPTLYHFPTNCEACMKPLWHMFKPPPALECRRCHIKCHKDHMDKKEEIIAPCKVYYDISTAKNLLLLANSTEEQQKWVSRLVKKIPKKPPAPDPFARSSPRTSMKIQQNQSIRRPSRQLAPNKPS
Sequence of Rho kinase 1 (ROCK1) (Q13464 whole entry): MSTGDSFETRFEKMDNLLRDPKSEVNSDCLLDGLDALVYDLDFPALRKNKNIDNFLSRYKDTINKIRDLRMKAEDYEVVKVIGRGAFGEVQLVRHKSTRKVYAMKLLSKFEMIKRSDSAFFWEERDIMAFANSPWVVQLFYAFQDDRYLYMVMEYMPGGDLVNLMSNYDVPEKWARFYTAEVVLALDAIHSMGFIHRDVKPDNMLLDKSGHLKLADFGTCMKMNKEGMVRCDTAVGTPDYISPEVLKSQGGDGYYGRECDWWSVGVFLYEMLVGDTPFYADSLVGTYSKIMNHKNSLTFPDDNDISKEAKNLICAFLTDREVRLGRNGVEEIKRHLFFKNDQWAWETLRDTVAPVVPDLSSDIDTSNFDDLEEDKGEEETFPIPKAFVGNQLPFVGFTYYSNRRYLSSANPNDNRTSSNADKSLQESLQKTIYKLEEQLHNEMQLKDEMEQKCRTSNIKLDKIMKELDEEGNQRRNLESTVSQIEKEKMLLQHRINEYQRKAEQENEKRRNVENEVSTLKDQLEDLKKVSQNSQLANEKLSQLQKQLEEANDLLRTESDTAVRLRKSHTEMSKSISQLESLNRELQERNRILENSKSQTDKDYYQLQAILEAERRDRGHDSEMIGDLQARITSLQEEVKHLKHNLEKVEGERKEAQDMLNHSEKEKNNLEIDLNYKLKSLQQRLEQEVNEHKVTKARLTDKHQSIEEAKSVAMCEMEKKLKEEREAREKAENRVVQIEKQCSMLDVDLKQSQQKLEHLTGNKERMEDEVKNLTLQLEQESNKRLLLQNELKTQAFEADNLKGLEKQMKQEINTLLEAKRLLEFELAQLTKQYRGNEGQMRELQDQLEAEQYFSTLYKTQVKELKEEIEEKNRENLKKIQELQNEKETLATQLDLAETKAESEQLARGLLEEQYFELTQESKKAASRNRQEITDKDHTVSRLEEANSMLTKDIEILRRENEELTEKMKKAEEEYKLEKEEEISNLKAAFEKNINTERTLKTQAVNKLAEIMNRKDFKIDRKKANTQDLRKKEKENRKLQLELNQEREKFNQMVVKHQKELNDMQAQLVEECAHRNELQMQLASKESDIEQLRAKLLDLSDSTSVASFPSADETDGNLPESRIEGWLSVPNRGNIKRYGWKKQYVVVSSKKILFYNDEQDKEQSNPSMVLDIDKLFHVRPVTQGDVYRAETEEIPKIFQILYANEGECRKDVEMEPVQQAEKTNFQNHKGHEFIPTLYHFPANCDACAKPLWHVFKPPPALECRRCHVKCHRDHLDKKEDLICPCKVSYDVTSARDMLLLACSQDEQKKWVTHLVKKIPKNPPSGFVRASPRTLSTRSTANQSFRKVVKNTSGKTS

For `N#Cc1c[nH]c2nccc(Oc3ccc4c(c3)CNCC4)c12` [Example 34, 4-((1,2,3,4-Tetrahydroisoquinolin-7-yl)oxy)-1H-pyrrolo[2,3-b]pyridine-3-carbonitrile], the pKi in experiment [1] and in experiment [2] was > 8.30 each time.
Consider `NCc1cc(F)c(Oc2ccnc3[nH]ccc23)c(F)c1` [Example 35, (4-((1H-Pyrrolo[2,3-b]pyridin-4-yl)oxy)-3,5-difluorophenyl)methanamine], for which the values for the pKi in experiment [1] and in experiment [2] were 7.30 to 8.30 and > 8.30, respectively.
Taken in the same sequence, the figures for `Cc1c[nH]c2nccc(Oc3ccc(C[C@H](N)CO)cc3F)c12` [Example 36, (S)-2-amino-3-(3-fluoro-4-((3-methyl-1H-pyrrolo[2,3-b]pyridin-4-yl)oxy)phenyl)propan-1-ol] were > 8.30 and > 8.30.
For `Cc1c[nH]c2nccc(Oc3ccc(C[C@H](N)CO)cc3)c12` [Example 37, (S)-2-amino-3-(4-((3-methyl-1H-pyrrolo[2,3-b]pyridin-4-yl)oxy)phenyl)propan-1-ol] the same measures were > 8.30 and > 8.30.
For `Cc1c[nH]c2nccc(Oc3ccc(C(N)CO)cc3)c12` (stereo not drawn) [Example 38, 2-amino-2-(4-((3-methyl-1H-pyrrolo[2,3-b]pyridin-4-yl)oxy)phenyl)ethanol] the same measures were 7.30 to 8.30 and > 8.30.
Regarding `Cc1c[nH]c2nccc(Oc3ccc4c(c3)CN[C@@H](CO)C4)c12` [Example 39, (R)-(7-((3-Methyl-1H-pyrrolo[2,3-b]pyridin-4-yl)oxy)-1,2,3,4-tetrahydroisoquinolin-3-yl)methanol], the pKi in experiment [1] and in experiment [2] was > 8.30 throughout.
